SMILES strings stand for the structures.

By IC50 is commonly meant the point on the concentration scale where inhibition reaches its midpoint. Higher therefore signals lower potency.

In the test the target is ROCK2 (human) (UniProt O75116). Nature of the test: Inhibition of ROCK2 Kinase Activity.
Sequence of ROCK2 (human) (O75116 whole entry, looked up): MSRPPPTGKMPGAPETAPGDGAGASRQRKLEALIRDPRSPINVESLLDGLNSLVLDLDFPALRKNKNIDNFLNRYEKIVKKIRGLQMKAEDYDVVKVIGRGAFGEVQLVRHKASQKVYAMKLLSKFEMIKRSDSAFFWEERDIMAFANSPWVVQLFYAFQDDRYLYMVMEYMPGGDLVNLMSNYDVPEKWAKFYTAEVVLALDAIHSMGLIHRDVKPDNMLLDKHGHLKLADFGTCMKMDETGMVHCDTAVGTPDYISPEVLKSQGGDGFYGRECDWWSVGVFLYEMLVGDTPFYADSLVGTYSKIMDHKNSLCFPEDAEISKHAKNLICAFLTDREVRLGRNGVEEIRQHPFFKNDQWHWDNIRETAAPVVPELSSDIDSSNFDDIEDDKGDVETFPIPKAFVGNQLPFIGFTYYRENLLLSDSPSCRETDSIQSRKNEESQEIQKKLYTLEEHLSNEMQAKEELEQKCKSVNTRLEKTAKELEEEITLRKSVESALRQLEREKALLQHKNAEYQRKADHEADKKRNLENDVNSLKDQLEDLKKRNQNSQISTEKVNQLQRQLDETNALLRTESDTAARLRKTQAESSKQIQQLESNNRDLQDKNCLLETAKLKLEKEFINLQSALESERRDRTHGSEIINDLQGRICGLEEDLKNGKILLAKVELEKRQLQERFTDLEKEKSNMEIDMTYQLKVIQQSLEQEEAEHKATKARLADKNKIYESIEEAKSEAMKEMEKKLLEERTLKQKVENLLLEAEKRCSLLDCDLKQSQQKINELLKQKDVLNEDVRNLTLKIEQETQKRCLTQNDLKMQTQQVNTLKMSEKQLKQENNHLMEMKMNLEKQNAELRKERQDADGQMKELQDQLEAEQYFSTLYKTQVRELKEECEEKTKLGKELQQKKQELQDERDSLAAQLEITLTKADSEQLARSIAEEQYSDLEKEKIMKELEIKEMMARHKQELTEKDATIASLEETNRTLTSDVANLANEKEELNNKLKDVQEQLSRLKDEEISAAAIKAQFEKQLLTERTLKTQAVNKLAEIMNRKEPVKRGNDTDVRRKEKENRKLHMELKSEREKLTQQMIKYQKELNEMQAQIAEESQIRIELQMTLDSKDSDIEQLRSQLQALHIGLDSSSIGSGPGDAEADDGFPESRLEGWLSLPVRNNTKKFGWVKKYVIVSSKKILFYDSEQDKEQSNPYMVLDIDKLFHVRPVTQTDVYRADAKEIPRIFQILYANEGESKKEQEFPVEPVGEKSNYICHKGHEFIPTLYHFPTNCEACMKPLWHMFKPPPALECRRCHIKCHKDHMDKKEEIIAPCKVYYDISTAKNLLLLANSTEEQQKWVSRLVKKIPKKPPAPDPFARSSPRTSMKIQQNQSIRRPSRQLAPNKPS
On to `NC(c1ccc(C(=O)Nc2ccncc2)cc1)C1CCCN1C(=O)C1(c2ccc(F)cc2)CCCC1` (stereo not given), for which the IC50 was 500 to 5000 nM.

`NC(CNC(=O)C1Cc2ccccc21)c1ccc(C(=O)Nc2ccncc2)cc1` (stereo not given) registered an IC50 of 50 to 500 nM.

As for `CC(C)(C(=O)NCC(N)c1ccc(C(=O)Nc2ccncc2)cc1)c1ccc(Cl)cc1F` (stereo not given), the concentration for half-maximal inhibition (IC50) is 50 to 500 nM.

`NC(CNC(=O)C1CCCCc2ccc(F)cc21)c1ccc(C(=O)Nc2ccncc2)cc1` (stereo not given) showed an IC50 of 50 to 500 nM.

Molecule `CN(CC(N)c1ccc(C(=O)Nc2ccncc2)cc1)C(=O)C1CCOc2ccc(F)cc21` (stereo not given) returned a half-maximal inhibitory concentration (IC50) of 500 to 5000 nM.

As for `CN(CC(N)c1ccc(C(=O)Nc2ccncc2)cc1)C(=O)C(c1ccccc1)C1CCCC1` (stereo not given), the IC50 lay in the range of 5000 to 50000 nM.

As for `CN(CC(N)c1ccc(C(=O)Nc2ccncc2)cc1)C(=O)Cc1ccc(Cl)c(Cl)c1` (stereo not given), the IC50 lay within 500 to 5000 nM.

In the case of `COCC(C)NC(=O)CC(N)c1ccc(C(=O)Nc2ccncc2)cc1` (stereo not given), the IC50 is 50 to 500 nM.

`NC(CNC(=O)c1cc2ccccc2[nH]1)c1ccc(C(=O)Nc2ccncc2)cc1` (stereo not given) displayed an IC50 of 500 to 5000 nM.

As to `Cc1ccc(CC(=O)N(C)CC(N)c2ccc(C(=O)Nc3ccncc3)cc2)cc1` (stereo not given), the IC50 fell in the range of 500 to 5000 nM.

Molecule `NC(c1ccc(C(=O)Nc2ccncc2)cc1)C1CCCN1C(=O)Cc1cccs1` (stereo not given) yielded an IC50 of 50 to 500 nM.

As for `CN(CC(N)c1ccc(C(=O)Nc2ccncc2)cc1)C(=O)C1(c2ccc(Cl)cc2Cl)CC1` (stereo not given), the IC50 was in the range of 500 to 5000 nM.

`COc1ccc(CNC(=O)NCC(N)c2ccc(C(=O)Nc3ccncc3)cc2)cc1` (stereo not given) gave an IC50 of 50 to 500 nM.

Molecule `CN(C)c1ccc(NC(=O)NCC(N)c2ccc(C(=O)Nc3ccncc3)cc2)cc1` (stereo not given) returned an IC50 of 50 to 500 nM.

On to `NC(CC(=O)NCCc1cccc(F)c1)c1ccc(C(=O)Nc2ccncc2)cc1` (stereo not given), for which the IC50 fell in the range of 500 to 5000 nM.

In turn, `COc1ccc(CCNC(=O)CC(N)c2ccc(C(=O)Nc3ccncc3)cc2)cc1OC` (stereo not given) came in with a 50% inhibitory concentration (IC50) of 500 to 5000 nM.

Molecule `NC(CNC(=O)CC1CC1)c1ccc(C(=O)Nc2ccncc2)cc1` (stereo not given) came in with an IC50 of 500 to 5000 nM.

In turn, `CN(CC(N)c1ccc(C(=O)Nc2ccncc2)cc1)C(=O)C1(c2ccc(F)cc2)CCC1` (stereo not given) gave an IC50 of 500 to 5000 nM.

`NC(CC(=O)N(CCc1ccccc1)Cc1ccccc1)c1ccc(C(=O)Nc2ccncc2)cc1` (stereo not given) had an IC50 of 50 to 500 nM.

`COc1ccccc1C(=O)NCC(N)c1ccc(C(=O)Nc2ccncc2)cc1` (stereo not given): the IC50 was 500 to 5000 nM.

`NC(c1ccc(C(=O)Nc2ccncc2)cc1)C1CCCN1C(=O)Cc1cc(F)cc(F)c1` (stereo not given) had an IC50 of 500 to 5000 nM.

`COc1ccc2c(c1)CCCC2C(=O)NCC(N)c1ccc(C(=O)Nc2ccncc2)cc1` (stereo not given) yielded an IC50 of 50 to 500 nM.

Take `NC(CC(=O)NCc1cccc2ccccc12)c1ccc(C(=O)Nc2ccncc2)cc1` (stereo not given): the IC50 was 50 to 500 nM.

`NC(c1ccc(C(=O)Nc2ccncc2)cc1)C1CCCN1C(=O)Cc1ccc(F)c(Cl)c1` (stereo not given) returned an IC50 of 50 to 500 nM.

`CC(=NOC(C)(C)C)c1ccc(C(=O)NCC(N)c2ccc(C(=O)Nc3ccncc3)cc2)s1` (stereo not given) gave an IC50 of 500 to 5000 nM.

Molecule `CC(C)=NOC(C)C(=O)NCC(N)c1ccc(C(=O)Nc2ccncc2)cc1` (stereo not given) registered an IC50 of 500 to 5000 nM.

Regarding `NC(CC(=O)NC(c1ccccc1)c1ccc(Cl)cc1)c1ccc(C(=O)Nc2ccncc2)cc1` (stereo not given), the IC50 was in the range of 50 to 500 nM.

`CC(=NOCC(=O)NCC(N)c1ccc(C(=O)Nc2ccncc2)cc1)c1ccccc1` (stereo not given): the IC50 fell in the range of 50 to 500 nM.

`NC(CNC(=O)C1CCOc2ccc(F)cc21)c1ccc(C(=O)Nc2ccncc2)cc1` (stereo not given) gave an IC50 of 50 to 500 nM.

The molecule `NC(c1ccc(C(=O)Nc2ccncc2)cc1)C1CCCN1C(=O)C1(c2ccc(F)c(F)c2)CC1` (stereo not given) gave an IC50 of 500 to 5000 nM.

For the molecule `Cc1cc(Cl)cc(Cl)c1CNC(=O)CC(N)c1ccc(C(=O)Nc2ccncc2)cc1` (stereo not given), the IC50 was 50 to 500 nM.

With `Cc1ccccc1NC(=O)NCC(N)c1ccc(C(=O)Nc2ccncc2)cc1` (stereo not given), the IC50 fell in the range of 50 to 500 nM.

For `CN(CC(N)c1ccc(C(=O)Nc2ccncc2)cc1)C(=O)C1(c2cccs2)CC1` (stereo not given), the IC50 is 500 to 5000 nM.

Take `NC(CNC(=O)Nc1ccccc1F)c1ccc(C(=O)Nc2ccncc2)cc1` (stereo not given): the IC50 fell in the range of 50 to 500 nM.

`CC(C)(C(=O)NCC(N)c1ccc(C(=O)Nc2ccncc2)cc1)c1ccc(F)cc1` (stereo not given) gave an IC50 of 50 to 500 nM.

Take `NC(CC(=O)Nc1ccc2cc[nH]c2c1)c1ccc(C(=O)Nc2ccncc2)cc1` (stereo not given): the IC50 is 50 to 500 nM.

`NC(CNC(=O)Cc1c(F)cccc1F)c1ccc(C(=O)Nc2ccncc2)cc1` (stereo not given) yielded an IC50 of 500 to 5000 nM.

`CC(C)(NC(=O)CC(N)c1ccc(C(=O)Nc2ccncc2)cc1)c1ccccc1` (stereo not given) returned an IC50 of 50 to 500 nM.

`NC(CNC(=O)CC1CCCCC1)c1ccc(C(=O)Nc2ccncc2)cc1` (stereo not given) returned an IC50 of 500 to 5000 nM.

Regarding `COCCNC(=O)CC(N)c1ccc(C(=O)Nc2ccncc2)cc1` (stereo not given), the IC50 is 50 to 500 nM.

`NC(c1ccc(C(=O)Nc2ccncc2)cc1)C1CCCN1C(=O)C1CCCc2ccccc21` (stereo not given) displayed an IC50 of 500 to 5000 nM.

Turning to `NC(c1ccc(C(=O)Nc2ccncc2)cc1)C1CCCN1C(=O)C(c1ccccc1)C1CCCC1` (stereo not given), the IC50 lay in the range of 500 to 5000 nM.

With `Cc1ccc2[nH]cc(CCNC(=O)CC(N)c3ccc(C(=O)Nc4ccncc4)cc3)c2c1` (stereo not given), the IC50 was in the range of 50 to 500 nM.

The molecule `Cc1ccc(C(=O)NCC(N)c2ccc(C(=O)Nc3ccncc3)cc2)cc1` (stereo not given) had an IC50 of 500 to 5000 nM.

Molecule `CCNC(=S)NCC(N)c1ccc(C(=O)Nc2ccncc2)cc1` (stereo not given) had an IC50 of 500 to 5000 nM.
